The subject of experiment [1] is delayed-type allergic reaction in the skin. To be noted: animal model; Non-patent Document 1; cited from earlier work.
Experiment [2] concerns chronic dermatitis models. As to conditions: Non-patent Document 2; cited from earlier work.
Experiment [3] has as its system oxazolone-induced ear swelling. The experiment can be described thus: Inhibitory effects on oxazolone-induced ear swelling in mice (Test Example 2). It counts as in vivo. To be noted: dose 1.2 μg/site, 0.03 mg/mL in acetone applied to inner and outer side of the ear 3 hours before and 2 hours after inducing the reaction, ear thickness 24 hours after induction, BALB/c mice. The procedure:
Six-week-old BALB/c mice (male, Charles River Japan, Inc.) were purchased. […] The mice were placed in plastic cages (6 mice per cage) in a breeding room which was kept at a room temperature (19 to 25° C.) and a humidity of 30 to 70% and was illuminated for 12 hours a day (from 7:00 a.m. to 7:00 p.m.). The mice were allowed to freely intake commercially available pellets and water.
As an antigen solution, Oxazolone (Sigma-Aldrich) was dissolved in acetone (Kanto Kagaku) to prepare 0.5 w/v % of oxazolone-acetone solution. BALB/c mice were each applied with 100 μL of the antigen solution to the shaved abdomen for sensitization. Mice were shaved on abdomen on the previous day of the sensitization. […] Ear thickness was measured with a dial thickness gauge (Ozaki Seisakusho) just before and 24 hours after inducing the reaction, and the difference in the thickness was used as an indication of ear swelling. The inhibition ratio (%) against ear swelling was calculated using the following: Inhibition ratio (%)=[{(value in positive control group)−(value in test compound administration group)}/{(value in positive control group)−(value in negative control group)}]×100 Test compound administration group: Compound (I) administration group, prednisolone administration group or combined administration group

SMILES strings stand for the structures. Marks after values point to notes of the source that are not given here.

`COc1ccc([C@]2(C#N)CC[C@@H](C(=O)O)CC2)cc1OC1CCCC1` [SB207499]: the “Effect on delayed-type allergic reaction in the skin” value in experiment [1] is reported as “inhibit a delayed-type allergic reaction in the skin”. Further, the “Therapeutic effects on chronic dermatitis models” value in experiment [2] is on record as “exhibit therapeutic effects”.

For the compound `C[C@]12C=CC(=O)C=C1CC[C@@H]1[C@@H]2[C@@H](O)C[C@@]2(C)[C@H]1CC[C@]2(O)C(=O)CO` [prednisolone], the “Inhibition Ratio (ear swelling)” value in experiment [3] is recorded as 18%; in experiment [3] (listed as Predonisolone), 18%***.
